Results reported in PubChem BioAssay AID2060610 (Molecular Pharmacology Branch, DTP, NCI, 2025).

Test system: 616215-338-R-J1-PDC complex spheroids, viability % test/control
Assay: Anticancer human tumor 616215-338-R-J1-PDC patient-derived colon adenocarcinoma cell line growth inhibition [CLK]
Settings: for IC50: curve of first compound; for viability, T/C: stronger effect = lower value
Outline: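 Multi-cell-type spheroids combined patient-derived tumor cells with HUVEC endothelial cells and human mesenchymal stem cells. Paired agents were dosed in half-log steps down from about clinical Cmax, or from 10 microM where Cmax was unknown.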

[1] = second compound 0.0316 µM, first compound 0.0316 µM
[2] = second compound 0.0316 µM, first compound 0.1 µM
[3] = second compound 0.0316 µM, first compound 0.316 µM
[4] = second compound 0.0316 µM, first compound 1 µM
[5] = second compound 0.0316 µM, first compound 3.16 µM
[6] = second compound 0.0316 µM, first compound 10 µM
[7] = second compound 0.1 µM, first compound 0.0316 µM
[8] = second compound 0.1 µM, first compound 0.1 µM
[9] = second compound 0.1 µM, first compound 0.316 µM
[10] = second compound 0.1 µM, first compound 1 µM
[11] = second compound 0.1 µM, first compound 3.16 µM
[12] = second compound 0.1 µM, first compound 10 µM
[13] = second compound 0.316 µM, first compound 0.0316 µM
[14] = second compound 0.316 µM, first compound 0.1 µM
[15] = second compound 0.316 µM, first compound 0.316 µM
[16] = second compound 0.316 µM, first compound 1 µM
[17] = second compound 0.316 µM, first compound 3.16 µM
[18] = second compound 0.316 µM, first compound 10 µM
[19] = second compound 1 µM, first compound 0.0316 µM
[20] = second compound 1 µM, first compound 0.1 µM
[21] = second compound 1 µM, first compound 0.316 µM
[22] = second compound 1 µM, first compound 1 µM
[23] = second compound 1 µM, first compound 3.16 µM
[24] = second compound 1 µM, first compound 10 µM
[25] = second compound 3.16 µM, first compound 0.0316 µM
[26] = second compound 3.16 µM, first compound 0.1 µM
[27] = second compound 3.16 µM, first compound 0.316 µM
[28] = second compound 3.16 µM, first compound 1 µM
[29] = second compound 3.16 µM, first compound 3.16 µM
[30] = second compound 3.16 µM, first compound 10 µM
[31] = second compound 10 µM, first compound 0.0316 µM
[32] = second compound 10 µM, first compound 0.1 µM
[33] = second compound 10 µM, first compound 0.316 µM
[34] = second compound 10 µM, first compound 1 µM
[35] = second compound 10 µM, first compound 3.16 µM
[36] = second compound 10 µM, first compound 10 µM
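Also: spheroids exposed to agents for 7 days.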
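For viability, T/C in this document: 100% = DMSO vehicle wells.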

COc1ccc([C@@H](O)c2cc(-c3ncnc4cc(N5CCOCC5)ccc34)c(F)cc2Cl)nn1 + CN1CCN(c2cc(C(=O)Nc3cc4cc(-c5cnn(C)c5)ccc4cn3)ccn2)CC1
IC50 (second compound 0.0316 µM): > 10000 nM
IC50 (second compound 0.1 µM): 9460 nM
IC50 (second compound 0.316 µM): < 31.6 nM
IC50 (second compound 1 µM): < 31.6 nM
IC50 (second compound 3.16 µM): < 31.6 nM
IC50 (second compound 10 µM): < 31.6 nM
viability, T/C [1]: 105%
viability, T/C [2]: 106%
viability, T/C [3]: 105%
viability, T/C [4]: 109%
viability, T/C [5]: 111%
viability, T/C [6]: 67.7%
viability, T/C [7]: 122%
viability, T/C [8]: 107%
viability, T/C [9]: 104%
viability, T/C [10]: 103%
viability, T/C [11]: 88.4%
viability, T/C [12]: 47.2%
viability, T/C [13]: 25.2%
viability, T/C [14]: 30.6%
viability, T/C [15]: 25.9%
viability, T/C [16]: 19.8%
viability, T/C [17]: 17.9%
viability, T/C [18]: 7.77%
viability, T/C [19]: 0.11%
viability, T/C [20]: 0.15%
viability, T/C [21]: 1.72%
viability, T/C [22]: 0.1%
viability, T/C [23]: 0.59%
viability, T/C [24]: 0.08%
viability, T/C [25]: 0.09%
viability, T/C [26]: 0.13%
viability, T/C [27]: 0.15%
viability, T/C [28]: 0.1%
viability, T/C [29]: 0.14%
viability, T/C [30]: 0.12%
viability, T/C [31]: 0.11%
viability, T/C [32]: 0.13%
viability, T/C [33]: 0.18%
viability, T/C [34]: 0.18%
viability, T/C [35]: 1.74%
viability, T/C [36]: 0.19%

COc1cccc2c1C(=O)c1c(O)c3c(c(O)c1C2=O)CC(O)(C(=O)CO)CC3OC1CC(N)C(O)C(C)O1 (stereo not drawn) + CN1CCN(c2cc(C(=O)Nc3cc4cc(-c5cnn(C)c5)ccc4cn3)ccn2)CC1
IC50 (second compound 0.0316 µM): 211 nM
IC50 (second compound 0.1 µM): 142 nM
IC50 (second compound 0.316 µM): < 31.6 nM
IC50 (second compound 1 µM): < 31.6 nM
IC50 (second compound 3.16 µM): < 31.6 nM
IC50 (second compound 10 µM): < 31.6 nM
viability, T/C [1]: 82.5%
viability, T/C [2]: 42.5%
viability, T/C [3]: 51.5%
viability, T/C [4]: 41.8%
viability, T/C [5]: 0.43%
viability, T/C [6]: 0.14%
viability, T/C [7]: 71%
viability, T/C [8]: 44.8%
viability, T/C [9]: 42.5%
viability, T/C [10]: 37.9%
viability, T/C [11]: 0.52%
viability, T/C [12]: 0.13%
viability, T/C [13]: 27.6%
viability, T/C [14]: 32.9%
viability, T/C [15]: 21.8%
viability, T/C [16]: 2.19%
viability, T/C [17]: 0.13%
viability, T/C [18]: 0.13%
viability, T/C [19]: 0.14%
viability, T/C [20]: 0.17%
viability, T/C [21]: 0.16%
viability, T/C [22]: 0.1%
viability, T/C [23]: 0.09%
viability, T/C [24]: 0.11%
viability, T/C [25]: 0.09%
viability, T/C [26]: 0.12%
viability, T/C [27]: 0.11%
viability, T/C [28]: 0.09%
viability, T/C [29]: 0.12%
viability, T/C [30]: 0.71%
viability, T/C [31]: 0.1%
viability, T/C [32]: 0.12%
viability, T/C [33]: 0.46%
viability, T/C [34]: 0.13%
viability, T/C [35]: 0.16%
viability, T/C [36]: 0.17%

CCCS(=O)(=O)Nc1ccc(F)c(C(=O)c2c[nH]c3ncc(-c4ccc(Cl)cc4)cc23)c1F + CNC(=O)c1ccc(Nc2nc(OC3CCCC3)c3c(-c4ccc5nc(C)oc5c4)c[nH]c3n2)c(OC)c1
IC50 (second compound 0.0316 µM): 6930 nM
IC50 (second compound 0.1 µM): 698 nM
IC50 (second compound 0.316 µM): < 31.6 nM
IC50 (second compound 1 µM): < 31.6 nM
IC50 (second compound 3.16 µM): < 31.6 nM
IC50 (second compound 10 µM): < 31.6 nM
viability, T/C [1]: 94.6%
viability, T/C [2]: 102%
viability, T/C [3]: 98.9%
viability, T/C [4]: 89.9%
viability, T/C [5]: 93.8%
viability, T/C [6]: 29.6%
viability, T/C [7]: 55%
viability, T/C [8]: 62.2%
viability, T/C [9]: 44.3%
viability, T/C [10]: 53.6%
viability, T/C [11]: 34.6%
viability, T/C [12]: 13%
viability, T/C [13]: 42.4%
viability, T/C [14]: 37.1%
viability, T/C [15]: 39.7%
viability, T/C [16]: 41.5%
viability, T/C [17]: 27%
viability, T/C [18]: 14.8%
viability, T/C [19]: 43.8%
viability, T/C [20]: 38.8%
viability, T/C [21]: 42.3%
viability, T/C [22]: 30.9%
viability, T/C [23]: 27.2%
viability, T/C [24]: 11.6%
viability, T/C [25]: 41.4%
viability, T/C [26]: 44.3%
viability, T/C [27]: 41.4%
viability, T/C [28]: 31.6%
viability, T/C [29]: 22%
viability, T/C [30]: 10.1%
viability, T/C [31]: 40.4%
viability, T/C [32]: 34.4%
viability, T/C [33]: 38.3%
viability, T/C [34]: 27.9%
viability, T/C [35]: 21.4%
viability, T/C [36]: 8.93%

COC1C=CCC(C)C(C)S(=O)(=O)NC(=O)c2ccc3c(c2)N(CC2CCC21)CC1(CCCc2cc(Cl)ccc21)CO3 (stereo not drawn) + CNC(=O)c1ccc(Nc2nc(OC3CCCC3)c3c(-c4ccc5nc(C)oc5c4)c[nH]c3n2)c(OC)c1
IC50 (second compound 0.0316 µM): > 10000 nM
IC50 (second compound 0.1 µM): 4640 nM
IC50 (second compound 0.316 µM): < 31.6 nM
IC50 (second compound 1 µM): < 31.6 nM
IC50 (second compound 3.16 µM): < 31.6 nM
IC50 (second compound 10 µM): < 31.6 nM
viability, T/C [1]: 95.9%
viability, T/C [2]: 95.1%
viability, T/C [3]: 94%
viability, T/C [4]: 86.2%
viability, T/C [5]: 104%
viability, T/C [6]: 52.3%
viability, T/C [7]: 56.5%
viability, T/C [8]: 57%
viability, T/C [9]: 57.6%
viability, T/C [10]: 60.9%
viability, T/C [11]: 59%
viability, T/C [12]: 34%
viability, T/C [13]: 37.2%
viability, T/C [14]: 43.9%
viability, T/C [15]: 33%
viability, T/C [16]: 25.7%
viability, T/C [17]: 19.6%
viability, T/C [18]: 20.4%
viability, T/C [19]: 35.1%
viability, T/C [20]: 39.7%
viability, T/C [21]: 34.3%
viability, T/C [22]: 26.4%
viability, T/C [23]: 21.5%
viability, T/C [24]: 17.1%
viability, T/C [25]: 41.6%
viability, T/C [26]: 41%
viability, T/C [27]: 34.5%
viability, T/C [28]: 27.2%
viability, T/C [29]: 22.8%
viability, T/C [30]: 20.3%
viability, T/C [31]: 40.7%
viability, T/C [32]: 33.7%
viability, T/C [33]: 29.8%
viability, T/C [34]: 26.5%
viability, T/C [35]: 19.6%
viability, T/C [36]: 17.3%
